Assay results: patent US11091486B2, “Process for the preparation of pyrazolo[1,5-a]pyrimidines and salts thereof” (Array BioPharma Inc., priority 2016, dated 2021)

Tested on: Rat cryopreserved hepatocytes
Assay: In vitro metabolic stability in rat hepatocytes (Example 34)
Format: in vitro ADME, Sprague Dawley rat
Conditions: 1 μM, predicted hepatic extraction ratio
Procedure: In vitro metabolic stabilities were studied at a concentration of 1 μM in the presence of liver microsomes and isolated hepatocytes.
A stock solution of the test compound was prepared at 10 mM (active compound) in DMSO. The in vitro stability of the test compound (1 μM) was assessed in the presence of hepatocytes as follows. Cryopreserved hepatocytes were thawed, isolated from shipping media and diluted to a density of 1×10^6 viable cells/mL, according to the supplier's guidelines, using Dulbecco's Modified Eagle Medium, 1×, high glucose (DMEM, Invitrogen, Carlsbad, Calif.). Viability was determined by trypan blue exclusion using a hemocytometer (3500 Hausser, VWR, West Chester, Pa.). […]
Data were acquired and peak areas were calculated for test compounds and the internal standard using Analyst 1.6.1 software (Sciex). […]
All calculations were performed using BioAssay Enterprise. The mean peak area ratios were calculated by averaging the peak area ratios (n=2) of test compound and the internal standard for each sample. Percent remaining was calculated by determining the ratio of the peak area ratio at each time point to the peak area ratio of the time-zero samples. The rate of loss of test compound (km) was determined by linear regression of—1n(f(t)) versus time. […] The t½ was determined dividing 1n(2) by km. […]

SMILES | Rat Hepatocyte Clearance (% ER)
C[C@@H]1CCc2ncc(F)cc2[C@H]2CCCN2c2ccn3ncc(c3n2)C(=O)N1 [Formula I] | 64 % ER
C[C@H]1CCc2ncc(F)cc2[C@H]2CCCN2c2ccn3ncc(c3n2)C(=O)N1 [formula I′] | 83 % ER
